Seven compounds from ChEMBL document CHEMBL1817626, “The structure-activity relationship of urea derivatives as anti-tuberculosis agents” (Bioorg Med Chem, 2011) can be followed below.

What is called inhibition is the change of the read-out against control, counted positive when it falls. As a reminder, the IC50 is the point on the concentration scale where inhibition reaches its midpoint.

Each structure is given as a SMILES string. In brackets after ≈: the same amount, converted by molar mass. Activity calls are given as the source filed them. No cut-off for these calls is given here.

For one test, the system named is Enterococcus faecalis. Kind of test: Antibacterial activity against Enterococcus faecalis. The format is functional.
The test system of the next test is Pseudomonas aeruginosa. Kind of test: Antibacterial activity against Pseudomonas aeruginosa. The format is functional.
The next test deals with Staphylococcus aureus. Briefly: Antibacterial activity against Staphylococcus aureus. The class given is functional.
In test [1] the target is T1, Epoxide hydrolase B (Mycobacterium tuberculosis) (UniProt P95276).
T1 sequence (whole entry): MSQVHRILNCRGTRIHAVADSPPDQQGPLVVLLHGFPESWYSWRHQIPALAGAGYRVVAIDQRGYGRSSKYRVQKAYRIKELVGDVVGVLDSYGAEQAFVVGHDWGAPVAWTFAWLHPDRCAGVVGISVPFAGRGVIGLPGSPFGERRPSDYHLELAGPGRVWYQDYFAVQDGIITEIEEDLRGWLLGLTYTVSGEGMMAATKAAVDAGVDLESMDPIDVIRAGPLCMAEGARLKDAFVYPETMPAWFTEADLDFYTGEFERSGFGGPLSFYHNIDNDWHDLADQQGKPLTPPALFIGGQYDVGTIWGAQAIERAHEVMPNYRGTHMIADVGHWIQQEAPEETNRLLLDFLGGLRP
Kind of test: Inhibition of Mycobacterium tuberculosis recombinant EphB expressed in Escherichia coli BL21 using CMNPC as substrate at 10 nM after 30 mins by fluorescent assay relative to control.

Test [2] relates to Escherichia coli. Briefly: Antibacterial activity against Escherichia coli […] TolC. The class given is functional.
The target in test [3] is T2, Hydrolase, alpha/beta hydrolase fold family (Mycobacterium tuberculosis) (UniProt O69638).
T2 sequence (whole entry): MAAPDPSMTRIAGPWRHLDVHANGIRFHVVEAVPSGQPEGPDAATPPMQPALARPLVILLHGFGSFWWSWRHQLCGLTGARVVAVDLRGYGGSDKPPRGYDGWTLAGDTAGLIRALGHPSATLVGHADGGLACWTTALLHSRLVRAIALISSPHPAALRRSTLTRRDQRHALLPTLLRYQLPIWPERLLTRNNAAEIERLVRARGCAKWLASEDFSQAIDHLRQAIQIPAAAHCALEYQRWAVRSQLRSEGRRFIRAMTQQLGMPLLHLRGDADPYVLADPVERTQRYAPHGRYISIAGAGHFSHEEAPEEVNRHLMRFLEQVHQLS
Kind of test: Inhibition of Mycobacterium tuberculosis recombinant EphE expressed in Escherichia coli BL21 using CMNPC as substrate at 10 nM after 30 mins by fluorescent assay relative to control.

The test system of test [4] is Mycobacterium tuberculosis. Kind of test: microbe, parasite or virus in culture. To be noted: H37Rv, 168 h.
Another test relates to Bacillus anthracis. Briefly: microbe, parasite or virus in culture.
Another test deals with Klebsiella pneumoniae. Briefly: Antibacterial activity against Klebsiella pneumoniae. The class given is functional.
Test [5] concerns the target T3, Bifunctional epoxide hydrolase 2 (Homo sapiens, UniProt P34913).
T3 sequence (P34913 whole entry): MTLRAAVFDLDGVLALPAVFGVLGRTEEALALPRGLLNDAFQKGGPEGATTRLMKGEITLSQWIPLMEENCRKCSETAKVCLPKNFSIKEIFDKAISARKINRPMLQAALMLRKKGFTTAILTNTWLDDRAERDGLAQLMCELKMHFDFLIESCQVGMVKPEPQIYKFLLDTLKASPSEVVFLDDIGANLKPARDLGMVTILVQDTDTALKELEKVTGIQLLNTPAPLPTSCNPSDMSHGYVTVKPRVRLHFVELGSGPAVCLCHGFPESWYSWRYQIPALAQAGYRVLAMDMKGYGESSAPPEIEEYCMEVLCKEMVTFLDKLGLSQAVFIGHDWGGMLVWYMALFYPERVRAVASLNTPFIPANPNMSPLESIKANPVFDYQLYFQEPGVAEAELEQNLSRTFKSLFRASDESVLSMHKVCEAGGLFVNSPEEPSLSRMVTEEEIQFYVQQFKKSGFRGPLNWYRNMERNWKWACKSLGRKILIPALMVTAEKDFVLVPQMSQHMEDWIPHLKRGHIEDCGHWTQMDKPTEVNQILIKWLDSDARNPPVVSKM
Kind of test: Inhibition of human recombinant soluble epoxide hydrolase using CMNPC as substrate after 10 mins by fluorescent assay.

The next test has as its system Vero. Kind of test: Cytotoxicity against african green monkey Vero cells after 72 hrs by MTT assay. The class given is cell-based. To be noted: Chlorocebus sabaeus. For orientation: Formazan colour is commonly taken as a measure of viable cells.
Test [6] relates to Mycolicibacterium smegmatis. Briefly: microbe, parasite or virus in culture. To be noted: str. MC2 155, 168 h.
A further test relates to Enterococcus faecium. Briefly: Antibacterial activity against Enterococcus faecium. The format is functional.
In test [7] the test system is Escherichia coli. Briefly: Antibacterial activity against Escherichia coli K12. To be noted: K-12. The class given is functional.

With `CC(=O)c1cccc(NC(=O)NC2C3CC4CC(C3)CC2C4)c1` (centres undefined), the MIC with Enterococcus faecalis is more than 200 µg/mL; in the test with Pseudomonas aeruginosa it was more than 200 µg/mL; in the test with Staphylococcus aureus it was more than 200 µg/mL; against Escherichia coli [2], more than 200 µg/mL; in test [4], 0.1 µg/mL (≈ 0.32 µM); with Bacillus anthracis it was more than 200 µg/mL. Moreover, the MIC is more than 200 µg/mL with Klebsiella pneumoniae, 6.25 µg/mL (≈ 20 µM) in test [6], more than 200 µg/mL against Enterococcus faecium and more than 200 µg/mL with Escherichia coli [7]. In addition, the inhibition amounted to 80.6% in test [1] and 31.4% in [3]. Moreover, the IC50 is 0.5 nM in test [5] and 9.7 µg/mL (≈ 31 µM) with Vero.
Regarding `CCCCCCCNC(=O)Nc1ccc(C)c(Cl)c1`, the MIC is more than 200 µg/mL against Enterococcus faecalis; more than 200 µg/mL with Pseudomonas aeruginosa; more than 200 µg/mL against Staphylococcus aureus; more than 200 µg/mL against Escherichia coli [2]; 3.1 µg/mL (≈ 11 µM) in [4]; more than 200 µg/mL in the test on Bacillus anthracis. Moreover, the MIC (with Klebsiella pneumoniae; in test [6]; in the test on Enterococcus faecium; with Escherichia coli [7]) was more than 200 µg/mL throughout. For the same compound, the inhibition amounted to 91% in test [1] and 99.3% in test [3]. For the same compound, the 50% inhibitory concentration (IC50) in test [5] was 1.6 nM; in the test with Vero it was 186 µg/mL (≈ 659 µM).
Regarding `CC(CCc1ccccc1)NC(=O)Nc1cccc(C(F)(F)F)c1F` (centres undefined), the MIC in the test on Enterococcus faecalis is 100 µg/mL (≈ 282 µM); against Pseudomonas aeruginosa, more than 200 µg/mL; in the test on Staphylococcus aureus, more than 200 µg/mL; in the test with Escherichia coli [2], 6.25 µg/mL (≈ 17.6 µM); in test [4], 1.6 µg/mL (≈ 4.52 µM); against Bacillus anthracis, more than 200 µg/mL. The MIC was more than 200 µg/mL against Klebsiella pneumoniae, 6.25 µg/mL (≈ 17.6 µM) in test [6], 100 µg/mL (≈ 282 µM) in the test on Enterococcus faecium and more than 200 µg/mL in the test with Escherichia coli [7]. The inhibition result in [1] is “inactive”. Moreover, in [3], the inhibition worked out at 63.9%. Moreover, the figures for the IC50 (in [5]; with Vero) were 1.9 nM and 38.5 µg/mL (≈ 109 µM), respectively.
With `CC1C(NC(=O)Nc2ccc(F)c(F)c2F)CC2CC1C2(C)C` (centres undefined), the MIC with Enterococcus faecalis was more than 200 µg/mL; in the test on Pseudomonas aeruginosa, more than 200 µg/mL; in the test with Staphylococcus aureus, 3.12 µg/mL (≈ 9.56 µM); in the test with Escherichia coli [2], 1.6 µg/mL (≈ 4.9 µM); in test [4] it was 0.02 µg/mL (≈ 0.0613 µM); with Bacillus anthracis it was 3.12 µg/mL (≈ 9.56 µM). Also, the MIC was more than 200 µg/mL in the test with Klebsiella pneumoniae, 0.8 µg/mL (≈ 2.45 µM) in test [6], more than 200 µg/mL against Enterococcus faecium and more than 200 µg/mL in the test on Escherichia coli [7]. Further, the inhibition in test [1] came to 76.3%; in [3], 86.1%. Further, the figures for the concentration for half-maximal inhibition (IC50) (in [5]; with Vero) were 0.4 nM and 16 µg/mL (≈ 49 µM), respectively.
Regarding `N#Cc1ccc(NC(=O)NC2C3CC4CC(C3)CC2C4)cc1` (centres undefined), the MIC against Enterococcus faecalis was more than 200 µg/mL; with Pseudomonas aeruginosa it was more than 200 µg/mL; against Staphylococcus aureus, more than 200 µg/mL; in [4], 0.4 µg/mL (≈ 1.35 µM); in the test on Bacillus anthracis it was 12.5 µg/mL (≈ 42.3 µM); with Klebsiella pneumoniae it was more than 200 µg/mL. The values for the MIC (in test [6]; against Enterococcus faecium) were 12.5 µg/mL (≈ 42.3 µM) and more than 200 µg/mL, respectively. In addition, the inhibition was determined as 9% in test [1] and 72.7% in [3]. The IC50 in test [5] is 1.1 nM; with Vero it was 7.1 µg/mL (≈ 24 µM).
Turning to `CC1(C)C2CCC(CNC(=O)Nc3ccc(F)c(F)c3F)C1C2` (centres undefined), the MIC is more than 200 µg/mL with Enterococcus faecalis; more than 200 µg/mL in the test with Pseudomonas aeruginosa; 3.13 µg/mL (≈ 9.59 µM) against Staphylococcus aureus; 0.2 µg/mL (≈ 0.613 µM) in [4]; 1.6 µg/mL (≈ 4.9 µM) with Bacillus anthracis; more than 200 µg/mL with Klebsiella pneumoniae. Also, the MIC in test [6] was 1.6 µg/mL (≈ 4.9 µM); against Enterococcus faecium it was more than 200 µg/mL; against Escherichia coli [7] it was more than 200 µg/mL. Also, the inhibition came to 38.6% in [1] and 103% in test [3]. For the same compound, the half-inhibitory concentration (IC50) in test [5] is 0.4 nM; in the test on Vero, 15.5 µg/mL (≈ 47.5 µM).
In the case of `O=C(Nc1ccc(F)c(F)c1F)NC1CCCCC1`, the MIC against Enterococcus faecalis, in the test on Pseudomonas aeruginosa, in the test with Staphylococcus aureus, in the test with Escherichia coli [2], against Bacillus anthracis and in the test on Klebsiella pneumoniae was more than 200 µg/mL each time. Moreover, the MIC was 12.5 µg/mL (≈ 45.9 µM) in test [6], more than 200 µg/mL against Enterococcus faecium and more than 200 µg/mL in the test with Escherichia coli [7]. The figures for the inhibition in test [1] and in test [3] were 96.4% and 65.6%, respectively. For the same compound, the results for the 50% inhibitory concentration (IC50) (in test [5]; in the test with Vero) were 1.2 nM and 15.9 µg/mL (≈ 58.4 µM), respectively.
